# From US20230255966A1, “A COMBINATION OF A CBP/P300 BROMODOMAIN INHIBITOR AND AN EGFR INHIBITOR FOR USE IN TREATING EGFR-MUTANT NSCLC” (TOLREMO THERAPEUTICS AG, priority 2020, published 2023)
# Read-outs that look alike come from different tables or passages of the source.
# Assays:
# HCC827 cells [1] = experiment: Cell counting by nuclear fluorescent staining (Hoechst33342); format: cell-based; settings: for Effect on cell proliferation as single agent: absence of EGFR inhibitor (FIG. 3 left); for Anti-proliferative activity / re-growth in presence of Gefitinib: in presence of 300 nM Gefitinib (FIG. 3)
# Procedure: Several plates were seeded, as for each time point of cell counting one plate was fixed and stained for analysis. […] Cell cultivation was continued until time of fixation and analysis for each plate. For extended time-points, medium and drugs were replenished twice weekly.
# At the given time plates were washed 3 times with PBS and cells fixed with 80 μl 4% PFA for 10 min, RT. After 3 wash steps with PBS cells were stained with 10 μg/ml Hoechst33342 (Thermo Scientific H12492) in 100 μl PBS for 2 h, RT, dark. After 3× PBS washing-steps, Hoechst33342 signals were acquired on in an automated imaging mode using a Zeiss Apotome with motorized X/Y stage and a 5× objective. Image analysis and determination of Hoechst33342 spots (nuclei) was done using ImageJ. Number of nuclei was plotted as function of time using GraphPad Prism.
# NCI-H1975 cells [2] = experiment: Gene expression analysis (qPCR of ALPP and HOPX); format: cell-based; settings: 24 h; for EGFR inhibitor induced gene expression (ALPP, HOPX): NCI-H1975, 1 μM CBP/p300 inhibitor in presence of 20 nM osimertinib
# Procedure: (§1) Equal amount of cDNA was then subjected to qPCR analysis using the Kapa SYBR fast kit (KK4611) in a 384 well format in a Roche Light Cycler 480. Gene expression of genes was evaluated by subtraction of housekeeping gene CT-values (b-Actin) from CT of the genes of interest, and by calculating the ΔΔCT by subtracting the DMSO control value from sample of interest to finally calculate fold change differences of treated versus control treated sample.
# (§2) Data is from 2 independent experiments with qPCRs in duplicate (mean±SEM) (FIG. 1C-D).
# HCC827 cells [3] = experiment: Gene expression analysis (qPCR of ALPP and HOPX); format: cell-based; settings: HCC827, 1 μM CBP/p300 inhibitor in presence of Gefitinib, 24 h
# Procedure: as §1, §2
# HCC827 cells [4] = experiment: Label-free determination of cell proliferation (CELIGO); format: cell-based; settings: for Development of drug resistance / re-growth: HCC827, combined with 100 nM osimertinib; for Development of drug resistance / re-growth / Effect on cell proliferation on their own: 21 days (FIG. 9); for Effect on cell proliferation on their own: HCC827, single agent (1 μM Compound A, 0.2 μM Compound C, 0.2 μM CCS1477, 1 μM FT-6876, 0.2 μM GNE-781)
# NCI-H1975 cells [5] = experiment: as above; format: cell-based
# HCC4006 cells = experiment: as above; settings: for Development of drug resistance / re-growth: HCC4006, combined with 100 nM osimertinib; for Development of drug resistance / re-growth / Effect on cell proliferation on their own: 21 days (FIG. 10); for Effect on cell proliferation on their own: HCC4006, single agent (1 μM Compound A, 0.2 μM Compound C, 0.2 μM CCS1477, 1 μM FT-6876, 0.2 μM GNE-781)
# Procedure: 2000 HCC4006 (ATCC; CRL2871) were seeded into 96 well plates (Greiner BioOne 655090) one day prior to drug treatment in RPMI medium containing 10% FCS and 2 mM L-Glutamine. The next day wells were imaged label-free using brightfield imaging on a CELIGO Image Cytometer to determine the initial cell number. Subsequently cells were treated with either DMSO, with single drugs (osimertinib and each of the CBP/p300 bromodomain inhibitors) or drug combinations of 100 nM osimertinib and one CBP/p300 bromodomain inhibitor with drug concentrations given below. Plates were regularly imaged over weeks using brightfield mode (CELIGO Imaging Cytometer) to track cell proliferation in each well over time. Growth medium and treatments were replenished twice weekly. […] Cell numbers were determined using CELIGO software's built-in “direct cell counting” analysis tool in the brightfield mode.
# NCI-H1975 xenografts = experiment: NCI-H1975 xenograft tumor growth; format: in vivo, NMRI-Nude mice; settings: 2 mg/kg osimertinib alone
# Procedure: Tumor volume was measured using a manual caliper two to three times a week. The tumor volume was calculated using the formula: lager tumor diameter x square of the smaller tumor diameter divided by 2. Based on a linear fit of the mean tumor volumes the slopes of the curves were compared by regression analysis (two-tailed).
# (§3) The response was determined by comparing tumor volume change at time t to its baseline: % tumor volume change=ΔVolt=100%×((Vt−Vinitial)/Vinitial). The Best Response was the minimum value of ΔVolt for t≥10 d. For each time t, the average of ΔVolt from t=0 to t was also calculated. The BestAvgResponse is defined as the minimum value of this average for t≥10 d. This metric captures a combination of speed, strength and durability of response into a single value. […] Mice that were sacrificed because of an adverse event before they had completed 14 d on trial were removed from the data set.
# as §3, with “ΔVolt for t≥6 d. For” for “ΔVolt for t≥10 d. For”
# [6] = NCI-H1975, 50 nM osimertinib alone (FIG. 5)
smiles,measurement,setting,value
CC(=O)N1C[C@H](c2nc(Nc3ccc4[nH]ncc4c3)cc(-c3cccnc3)n2)CC[C@@H]1C [Compound 00030],Effect on cell proliferation as single agent,HCC827 cells [1],absence of an anti-proliferative effect
same,Anti-proliferative activity / re-growth in presence of Gefitinib,HCC827 cells [1],potentiate the effect of the EGFR inhibitor
CNC(=O)Nc1ccc2c(c1)CC[C@@]21OC(=O)N(CC(=O)N(Cc2ccc(F)cc2)[C@@H](C)C(F)(F)F)C1=O [Compound A-485],"EGFR inhibitor induced gene expression (ALPP, HOPX)",NCI-H1975 cells [2],reverse EGFR inhibitor induced gene expression
same,"EGFR inhibitor induced gene expression (ALPP, HOPX)",HCC827 cells [3],reverse EGFR inhibitor induced gene expression
same,Effect on cell proliferation as single agent,HCC827 cells [1],affect cell proliferation
COc1cncc(-c2cc(Nc3cccc(F)c3)nc([C@@H]3CC[C@H](C)N(C(C)=O)C3)n2)c1 [Compound A],Re-growth in long-term cultures,"HCC827 cells [4]; HCC827, 300 nM Gefitinib + 1 μM Compound A, >22 days (FIG. 4)",significantly delays or completely prevents re-grow
same,Effect on cell numbers on its own,"HCC827 cells [4]; HCC827, 1 μM Compound A alone (FIG. 4)",weak/no effect on cell numbers
same,Development of drug resistance / re-growth,HCC827 cells [4],prevent the development of drug resistance
same,"EGFR inhibitor induced gene expression (ALPP, HOPX)",NCI-H1975 cells [2],reverse EGFR inhibitor induced gene expression
same,"EGFR inhibitor induced gene expression (ALPP, HOPX)",HCC827 cells [3],reverse EGFR inhibitor induced gene expression
same,Re-growth under continuous Gefitinib exposure,HCC827 cells [1]; in combination with 20 nM Gefitinib (FIG. 2A),Re-growth is inhibited
same,Anti-proliferative activity / re-growth in presence of Gefitinib,HCC827 cells [1],potentiate the effect of the EGFR inhibitor
same,Growth long-term,"NCI-H1975 cells [5]; NCI-H1975, 50 nM osimertinib with 2.0, 0.5 or 0.125 μM co-treatment (FIG. 5)",delayed
same,Effect on cell numbers on their own,"NCI-H1975 cells [5]; NCI-H1975, 2 μM single agent (FIG. 5)",no/weak effect on cell numbers
COC(=O)N1c2ccc3c(nc(Cc4ccccc4)n3[C@H]3CCC[C@H](C(=O)O)C3)c2CC[C@@H]1C [FT-6876],Development of drug resistance / re-growth,HCC827 cells [4],prevent the development of drug resistance
same,Effect on cell proliferation on their own,HCC827 cells [4],do not affect cell proliferation
same,Development of drug resistance / re-growth,HCC4006 cells,prevent the development of drug resistance
same,Effect on cell proliferation on their own,HCC4006 cells,do not affect cell proliferation
CNC(=O)N1CCc2c(c(N3CCCc4cc(-c5cnn(C)c5)c(C(F)F)cc43)nn2C2CCOCC2)C1 [GNE-781],Development of drug resistance / re-growth,HCC827 cells [4],prevent the development of drug resistance
same,Effect on cell proliferation on their own,HCC827 cells [4],do not affect cell proliferation
same,Development of drug resistance / re-growth,HCC4006 cells,prevent the development of drug resistance
same,Effect on cell proliferation on their own,HCC4006 cells,do not affect cell proliferation
COc1cc2ncnc(Nc3ccc(F)c(Cl)c3)c2cc1OCCCN1CCOCC1 [Gefitinib],"Cell proliferation, initial","HCC4006 cells; HCC4006, 300 nM Gefitinib alone (FIG. 8)",initially completely blocks cell proliferation
same,Re-growth in long-term cultures,"HCC4006 cells; HCC4006, 300 nM Gefitinib only (FIG. 8)",HCC4006 cells re-grow if treated with Gefitinib only
O=C1[C@H](Cc2ccc(O)cc2)N2C(=O)CCN(C(=O)NCc3ccccc3)[C@H]2CN1Cc1cccc2ccccc12 [ICG-001],"EGFR inhibitor induced gene expression (ALPP, HOPX)",NCI-H1975 cells [2],does not blunt EGFR-induced gene expression
same,"EGFR inhibitor induced gene expression (ALPP, HOPX)",HCC827 cells [3],does not blunt EGFR-induced gene expression
COc1ccc(CCc2nc3cc(-c4c(C)noc4C)ccc3n2C[C@H](C)N2CCOCC2)cc1Cl [SGC-CBP30],Effect on cell proliferation as single agent,HCC827 cells [1],do not affect cell proliferation
same,Anti-proliferative activity / re-growth in presence of Gefitinib,HCC827 cells [1],potentiate the effect of the EGFR inhibitor
C=CC(=O)Nc1cc(Nc2nccc(-c3cn(C)c4ccccc34)n2)c(OC)cc1N(C)CCN(C)C [osimertinib],"Cell proliferation, initial",HCC827 cells [4],initially blocks cell proliferation
same,Re-growth in long-term cultures,HCC827 cells [4],HCC827 cells re-grow if treated with osimertinib only
same,"Cell proliferation, initial","HCC4006 cells; HCC4006, 100 nM osimertinib alone (FIG. 10)",initially blocks cell proliferation
same,Re-growth in long-term cultures,"HCC4006 cells; HCC4006, 100 nM osimertinib only (FIG. 10)",HCC4006 cells re-grow if treated with osimertinib only
same,ALPP and HOPX gene expression,"NCI-H1975 cells [2]; NCI-H1975, EGFR inhibitor (20 nM osimertinib) alone",upregulation of example genes ALPP and HOPX
same,Slope of linear regression fit of mean tumor volumes over time,NCI-H1975 xenografts,+6.4
same,"Cell proliferation, initial",NCI-H1975 cells [5]; [6],initially blocks cell proliferation
same,Growth long-term,NCI-H1975 cells [5]; [6],cells continue growing with a slow rate
